In patent US6988613B2, “Composition for IVF” (Novo Nordisk A/S, priority 2001, dated 2006):
Values after ≈ are worked out from the molar mass of the structure shown. Like-named read-outs stand apart in the source and are kept apart here.

Key:
[1] = Solubility of FF-MAS in water, ethanol and ethanol/water; type: physicochemical
Method: The solubility of a preferred MAS, i.e., FF-MAS, in water is very low, i.e., approximately 20 picogram/ml (corresponding to 2×10^−5 μg/ml). […] According to our preliminary investigations, the highest solubility of FF-MAS in a mixture of ethanol and water (1:2.5) is approximately 0.4 mg/ml. Several other MASs have a similar low solubility in water.

[2] = system: oocytes obtained from immature female mice; assay: Germinal vesicle breakdown (GVB) test on mouse oocytes; type: cell-based
Method: Oocytes were obtained from immature female mice (C57BL/6J×DBA/2J F1, Bomholtgaard, Denmark) weighing 13–16 grams, that were kept under controlled temperature (20–22° C.), light (lights on 06.00–18.00) and relative humidity (50–70%). The mice received an intraperitoneal injection of 0.2 ml gonadotropins (Gonal-F, Serono) containing 20 IU FSH and 48 hours later the animals were killed by cervical dislocation. The ovaries were dissected out and the oocytes were isolated in Hx-medium (see below) under a stereo microscope by manual rupture of the follicles using a pair of 27 gauge needles. Spherical oocytes displaying an intact germinal vesicle (hereinafter designated GV) were divided in cumulus enclosed oocytes (hereinafter designated CEO) and naked oocytes (hereinafter designated NO) and placed in α-minimum essential medium (α-MEM without ribonucleosides, Gibco BRL, Cat. No. 22561) supplemented with 3 mg/ml bovine serum albumin (BSA, Sigma Cat. No. A-7030), 5 mg/ml human serum albumin (HSA, State Serum Institute, Denmark), 0.23 mM pyruvate (Sigma, Cat. No S-8636), 2 mM glutamine (Flow Cat. No. 16-801), 100 IU/ml penicillin and 100 μg/ml streptomycin (Flow, Cat No. 16-700). This medium was supplemented with 3 mM hypoxanthine (Sigma Cat. No. H-9377) and designated Hx-medium.
The oocytes were rinsed three times in Hx-medium and oocytes of uniform size were divided into groups of CEO and NO. CEO and NO were cultured in 4-well multidishes (Nunclon, Denmark) in which each well contained 0.4 ml of Hx-medium and the compound to be tested in a concentration of 10 μM. One control well (i.e., 35–45 oocytes cultured in identical medium with no addition of test compound) was always cultured simultaneously with 3 test wells (35–45 oocytes per well supplemented with test compound).
The oocytes were cultured in a humidified atmosphere of 5% CO2 in air for 24 hours at 37° C. By the end of the culture period, the number of oocytes with GV, GVB and polar bodies (hereinafter designated PB), respectively, were counted using a stereo microscope (Wildt, Leica MZ 12). The percentage of GVB, defined as percentage of oocytes undergoing GVB per total number of oocytes in that well, was calculated as: % GVB=((number of GVB+number of PB)/total number of oocytes)×100.
FF-MAS was dissolved in ethanol (25 μg FF-MAS/ml ethanol). HSA is dissolved in water (1%). 100 μl of the above mentioned ethanol solution (corresponding to the amount of FF-MAS needed for one treatment) and 350 μl of the above-mentioned HSA solution were mixed in a glass vial. The resulting mixture of FF-MAS and HSA was evaporated to dryness by airflow of argon. After the liquid was evaporated, the vial was sealed by a rubber septum and the vial was placed at a temperature of 2–8° C. At the time for usage, 500 μl of freshly prepared IVM media was added to the residue in the vial and shaken calmly for 1–2 minutes. The IVM media used was TCM 199 with Earle's salts (Sigma) to which was added 0.8% HSA, 2 mM L-glutamine, 0.25 mM sodium pyrovate, 100 IU/ml penicillin G, and 100 microgram/ml streptomycin. The liquid was transferred to a 4-well dish and the composition was tested on oocytes obtained from immature female mice. Percentage GVB obtained, see below in Table 1.
FF-MAS was dissolved in ethanol (20 μg FF-MAS/ml ethanol) and HSA was dissolved in water (1%). 100 μl of the above mentioned ethanol solution (corresponding to the amount of FF-MAS needed for one treatment) and 250 μl of the above-mentioned HSA solution were mixed and 350 μl of the combined liquid was aliquoted in a glass vials. The vials were placed at −80° C. for one night. All samples were thereafter freeze-dried at −45° C. for 16 hours followed by 8 hours freeze drying at −15° C. and 8 hours freeze drying at +25° C. Before the freeze dryer was opened all vials were automatically sealed with rubber septums by a pressure of nitrogen. The vials were closed with a capsule and placed at a temperature of 2–8° C. […]

SMILES: CC(C)=CCC[C@@H](C)[C@H]1CC=C2C3=C(CC[C@@]21C)[C@@]1(C)CC[C@H](O)C(C)(C)[C@@H]1CC3 [FF-MAS, 4,4-dimethyl-5α-cholesta-8,14,24-triene-3β-ol]
- solubility ([1]; ethanol/water (1:2.5), aqueous with cosolvent or surfactant or cyclodextrin, ethanol and water (1:2.5), preliminary investigations, read-out: highest solubility of FF-MAS in a mixture of ethanol and water): ~400 µg/mL (≈ 0.974 mM)
- solubility of FF-MAS in water ([1]; in water): approximately 20 picogram/ml
- solubility ([1]; organic solvent or mixture, in ethanol, read-out: solubility of FF-MAS in ethanol): ~12000 µg/mL (≈ 29.2 mM)
- % GVB ([2]; Dose FF-MAS 0.24 μmol/l, in combination with HSA 6 mg/ml, Example 3): 86%
- % GVB ([2]; Dose FF-MAS 0.48 μmol/l, in combination with HSA 6 mg/ml, Example 3): 88%
- % GVB ([2]; Dose FF-MAS 1.2 μmol/l, in combination with HSA 6 mg/ml, Example 3): 91%
- % GVB ([2]; Dose FF-MAS 2.4 μmol/l, in combination with HSA 6 mg/ml, Example 3): 97%
- % GVB ([2]; Dose FF-MAS 10 μmol/l, internal control dissolved in ethanol, Example 3): 43%
- % GVB ([2]; Dose FF-MAS 10 μmol/l, internal control dissolved in ethanol, Example 4, first test): 85%
- % GVB ([2]; Dose FF-MAS 10 μmol/l, internal control dissolved in ethanol, Example 4, second test): 83%
- % GVB ([2]; Dose FF-MAS 10 μmol/l, internal control dissolved in ethanol, Example 8, 5 tests): 85%
